ChEMBL document CHEMBL1158124, “Engineering of the spinosyn PKS: directing starter unit incorporation” (2006)
≈ marks a conversion by molar mass, not a printed value.

How the values were obtained:
Format in all cases: functional
Tetranychus urticae = experiment: Insecticidal activity against two-spotted spinder mites assessed as count of live mites after 4 days with low light condition; conditions: 96 h
Myzus persicae = experiment: Insecticidal activity against green peach aphid assessed as count of nonwinged stage live aphid after 72 hrs with 24 hrs of photoperiod prior to grading
Bemisia tabaci = experiment: Insecticidal activity against sweet potato whitefly assessed as larval survival after 13 days; conditions: 312 h
Spodoptera exigua = experiment: Insecticidal activity against beet armyworm assessed as mortality per larva after 5 days
Trichoplusia ni = experiment: Insecticidal activity against cabbage looper assessed as mortality per larva after 5 days
Aphis gossypii = experiment: Insecticidal activity against cotton aphid assessed as count of nonwinged stage live aphid after 72 hrs with 24 hrs of photoperiod prior to grading
Heliothis virescens = experiment: Insecticidal activity against tobacco budworm assessed per larva

`CO[C@@H]1[C@@H](OC)[C@H](C)O[C@@H](O[C@H]2C[C@H]3[C@@H]4C=C5C(=O)[C@H](C)[C@@H](O[C@H]6CC[C@H](N(C)C)[C@@H](C)O6)CCC[C@H](C6CCC6)OC(=O)C[C@H]5[C@@H]4C=C[C@@H]3C2)[C@@H]1OC` [21-DESETHYL-21-CYCLOBUTYLSPINOSYNS A] was tested, and the LC50 (Tetranychus urticae) was over 50 µg/mL, the LC50 (Myzus persicae) was over 50 µg/mL and the LC50 (Bemisia tabaci) was 55 µg/mL (≈ 72.6 µM). It also gave an LC50 (Spodoptera exigua) of over 1 µg, an LC50 (Trichoplusia ni) of 0.124 µg and an LC50 (Aphis gossypii) of 3 µg/mL (≈ 3.96 µM). For the same compound, the LC50 (Heliothis virescens) was 0.013 µg.

For `CO[C@@H]1[C@@H](OC)[C@H](C)O[C@@H](O[C@H]2C[C@H]3[C@@H]4C=C5C(=O)[C@H](C)[C@@H](O[C@H]6CC[C@H](N(C)C)[C@@H](C)O6)CCC[C@H](C6CCC6)OC(=O)C[C@H]5[C@@H]4C=C(C)[C@@H]3C2)[C@@H]1OC`, the LC50 (Myzus persicae) was over 50 µg/mL, the LC50 (Bemisia tabaci) was 13.5 µg/mL (≈ 17.5 µM) and the LC50 (Spodoptera exigua) was 0.385 µg. The LC50 (Trichoplusia ni) was 0.01 µg, the LC50 (Aphis gossypii) was 15 µg/mL (≈ 19.4 µM) and the LC50 (Heliothis virescens) was 0.016 µg.

In the case of `CO[C@@H]1[C@@H](OC)[C@H](C)O[C@@H](O[C@H]2C[C@H]3[C@@H]4C=C5C(=O)[C@H](C)[C@@H](O[C@H]6CC[C@H](N(C)C)[C@@H](C)O6)CCC[C@H](C)OC(=O)C[C@H]5[C@@H]4C=C[C@@H]3C2)[C@@H]1OC` [SPINOSYN E], the LC50 (Tetranychus urticae) was 10 µg/mL (≈ 13.9 µM), the LC50 (Myzus persicae) was over 50 µg/mL and the LC50 (Bemisia tabaci) was 3.9 µg/mL (≈ 5.43 µM). The LC50 (Aphis gossypii) was over 50 µg/mL.

`CO[C@@H]1[C@@H](OC)[C@H](C)O[C@@H](O[C@H]2C[C@H]3[C@@H]4C=C5C(=O)[C@H](C)[C@@H](O[C@H]6CC[C@H](N(C)C)[C@@H](C)O6)CCC[C@H](C6CC6)OC(=O)C[C@H]5[C@@H]4C=C[C@@H]3C2)[C@@H]1OC` [21-DESETHYL-21-CYCLOPROPYLSPINOSYNS A] showed an LC50 (Tetranychus urticae) of over 50 µg/mL, an LC50 (Myzus persicae) of over 50 µg/mL and an LC50 (Bemisia tabaci) of over 50 µg/mL. It also gave an LC50 (Spodoptera exigua) of 1 µg, an LC50 (Trichoplusia ni) of 0.157 µg and an LC50 (Aphis gossypii) of 46 µg/mL (≈ 61.8 µM). It also gave an LC50 (Heliothis virescens) of 0.125 µg.

For `CO[C@@H]1[C@@H](OC)[C@H](C)O[C@@H](O[C@H]2C[C@H]3[C@@H]4C=C5C(=O)[C@H](C)[C@@H](O[C@H]6CC[C@H](N(C)C)[C@@H](C)O6)CCC[C@H](C(C)C)OC(=O)C[C@H]5[C@@H]4C=C[C@@H]3C2)[C@@H]1OC` [21-DESETHYL-21-ISOPROPYLSPINOSYN A], the LC50 (Spodoptera exigua) was 0.123 µg, the LC50 (Trichoplusia ni) was 0.022 µg and the LC50 (Heliothis virescens) was 0.02 µg.

In the case of `CCC[C@H]1CCC[C@H](O[C@H]2CC[C@H](N(C)C)[C@@H](C)O2)[C@@H](C)C(=O)C2=C[C@@H]3[C@@H](C=C[C@@H]4C[C@@H](O[C@@H]5O[C@@H](C)[C@H](OC)[C@@H](OC)[C@H]5OC)C[C@@H]34)[C@@H]2CC(=O)O1` [21-DESETHYL-21-N-PROPYLSPINOSYN A], the LC50 (Tetranychus urticae) was under 50 µg/mL, the LC50 (Myzus persicae) was over 50 µg/mL and the LC50 (Bemisia tabaci) was over 50 µg/mL. The LC50 (Spodoptera exigua) was 0.031 µg, the LC50 (Trichoplusia ni) was 0.004 µg and the LC50 (Aphis gossypii) was 27.3 µg/mL (≈ 36.6 µM). The LC50 (Heliothis virescens) was 0.025 µg.

For `CO[C@@H]1[C@@H](OC)[C@H](C)O[C@@H](O[C@@H]2C[C@H]3CC[C@@H]4[C@@H](C=C5C(=O)[C@H](C)[C@@H](O[C@H]6CC[C@H](N(C)C)[C@@H](C)O6)CCC[C@H](C6CCC6)OC(=O)C[C@H]54)[C@@H]3C2)[C@@H]1OC` [5,6-DIHYDRO-21-DESETHYL-21-CYCLOBUTYLSPINOSYN A], the LC50 (Myzus persicae) was over 50 µg/mL, the LC50 (Bemisia tabaci) was 0.7 µg/mL (≈ 0.921 µM) and the LC50 (Spodoptera exigua) was 0.134 µg. For the same compound, the LC50 (Trichoplusia ni) was 0.013 µg, the LC50 (Aphis gossypii) was 1.7 µg/mL (≈ 2.24 µM) and the LC50 (Heliothis virescens) was 0.02 µg.

For `CC[C@H]1CCC[C@H](O[C@H]2CC[C@H](N(C)C)[C@@H](C)O2)[C@@H](C)C(=O)C2=C[C@@H]3[C@@H](C=C[C@@H]4C[C@@H](O[C@@H]5O[C@@H](C)[C@H](OC)[C@@H](OC)[C@H]5OC)C[C@@H]34)[C@@H]2CC(=O)O1` [SPINOSYN A], the LC50 (Tetranychus urticae) was 5.3 µg/mL (≈ 7.24 µM), the LC50 (Myzus persicae) was 50 µg/mL (≈ 68.3 µM) and the LC50 (Bemisia tabaci) was 20 µg/mL (≈ 27.3 µM). For the same compound, the LC50 (Spodoptera exigua) was 0.63 µg, the LC50 (Trichoplusia ni) was 0.03 µg and the LC50 (Aphis gossypii) was 65 µg/mL (≈ 88.8 µM). It also gave an LC50 (Heliothis virescens) of 0.03 µg.

`CC[C@H]1CCC[C@H](O[C@H]2CC[C@H](N(C)C)[C@@H](C)O2)[C@@H](C)C(=O)C2=C[C@@H]3[C@@H](C=C(C)[C@@H]4C[C@@H](O[C@@H]5O[C@@H](C)[C@H](OC)[C@@H](OC)[C@H]5OC)C[C@@H]34)[C@@H]2CC(=O)O1` [SPINOSYN D] showed an LC50 (Tetranychus urticae) of 19 µg/mL (≈ 25.5 µM), an LC50 (Myzus persicae) of 50 µg/mL (≈ 67 µM) and an LC50 (Bemisia tabaci) of 1.7 µg/mL (≈ 2.28 µM). The LC50 (Aphis gossypii) was 50 µg/mL (≈ 67 µM).
